# Data as given in US5212286A, “Atrial Natriuretic/vasodilator peptide compounds” (Scios Nova Inc., priority 1986, dated 1993).
# Positions of bridges follow the written chain, without caps; N, C: chain ends. Residues, ends and D or L forms follow the SMILES beside them.
# Key:
# anesthetized dogs = test: Hemodynamic, renal and metabolic effects in anesthetized dogs; assay type: in vivo, dog
# Procedure: Renal and hemodynamic effects have also been measured in anesthetized dogs receiving a constant infusion of the compound rANVP(126-149) (1 μg/kg bolus, followed by 0.1 μg/kg/min for 1 hour). Effects were immediately detected on blood pressure, GFR and urine flow rate and electrolyte excretion and were sustained throughout the infusion. The "experimental" data presented for these parameters in […] are the average values obtained during the infusion. Mean arterial pressure (MAP) fell consistently by 10-15% while GFR rose by 25-35%, in association with a sustained diuresis and natriuresis (Table VIII). The parameters returned to control (i.e. pre-infusion) levels following termination of the infusion.
# isolated rat kidney = test: Renal function in the isolated perfused rat kidney
# intact rats = test: Natriuretic and diuretic effects in intact rats (bolus injection); assay type: in vivo, rat
# Procedure: Synthetic ANVP compounds […] hANVP(127-151) were also found to be natriuretic in the intact rat. These compounds were administered as a bolus injection to Inactin anesthetized rats (100 mg/kg, average weight 399 g) which were maintained on a constant infusion of normal saline at 2.2 ml/hr. […] Data are expressed as mean±SE.
# [1] = tested on: ANVP receptor sites on cultured bovine vascular smooth muscle cells; test: Displacement of specific [125I]rANVP(126-150) binding on cultured smooth muscle cells; conditions: for Ki: concentration of half-maximal displacement
# Excerpt: Specific and saturable binding is a necessary component of a hormone/receptor interaction.
# Various concentrations of the peptides described were examined for […]
# [2] = tested on: precontracted rabbit or rat aortic preparations; test: Vasorelaxant potency on precontracted aortic rings; conditions: for vasorelaxant potency in words: precontracted vascular preparations; for IC50: thoracic aortic segments precontracted with histamine or norepinephrine, read-out: IC50 (concentration producing half-maximal relaxation of the precontracted tissue)
# Procedure: Synthetic ANVP compounds were compared to partially purified (gel filtration step) and purified (HPLC) native ANVP compounds (See FIGS. 3A-D) for their ability to relax histamine-contracted aortic rings. Rings were suspended in 10 ml aerated Kreb's buffer under 1.5 gm passive tension. Rings were precontracted with 5 X 10^-6 M histamine, washed and allowed to return to baseline tension, as described ([…]., supra). Increasing amounts of purified or synthetic ANVP compounds were then added in cumulative fashion. […] The relaxation effects of various ANVP compounds on precontracted rabbit or rat aortic preparations are shown in Table III. | Thoracic aortic segments were precontracted with histamine or | norepinephrine as previously described. Various doses of ANVP compounds | were then added and relaxation of the precontracted state was monitored. | Data are expressed as the concentration of each peptide required to | produce a halfmaximal relaxation of the precontracted tissue (IC50).
# [3] = experimental: average during infusion
# [4] = recovery, after termination of the infusion
# [5] = experimental peak value, 0.1 to 1.0 μg added to perfusate, mean ± SE of 4 kidneys
# [6] = dose 1 μg, experimental period E, mean of 3-8 experiments
smiles,measurement,setting,value
CC[C@H](C)[C@@H]1NC(=O)[C@H](CCCNC(=N)N)NC(=O)[C@H](CC(=O)O)NC(=O)[C@H]([C@@H](C)CC)NC(=O)[C@H](CCCNC(=N)N)NC(=O)CNC(=O)CNC(=O)[C@H](Cc2ccccc2)NC(=O)[C@@H](NC(=O)[C@H](CO)NC(=O)[C@H](CO)NC(=O)[C@@H](N)CCCNC(=N)N)CSSC[C@@H](C(=O)N[C@@H](CC(N)=O)C(=O)N[C@@H](CO)C(=O)N[C@@H](Cc2ccccc2)C(=O)N[C@@H](CCCNC(=N)N)C(=O)O)NC(=O)CNC(=O)[C@H](CC(C)C)NC(=O)CNC(=O)[C@H](CO)NC(=O)[C@H](CCC(N)=O)NC(=O)[C@H](C)NC(=O)CNC1=O [rANVP(126-149)] (H-RSSCFGGRIDRIGAQSGLGCNSFR-OH; disulfide 4-20),fall of mean arterial pressure (MAP),anesthetized dogs; during infusion,10-15%
same,rise of GFR,anesthetized dogs; during infusion,25-35%
same,.V (urine flow rate),anesthetized dogs; [3],1.06 ± 0.14 mL/min
same,FEH2O (fractional water excretion),anesthetized dogs; [3],3.4 ± 0.3%
same,FEK,anesthetized dogs; [3],34 ± 6%
same,FENa,anesthetized dogs; [3],4.1 ± 0.5%
same,GFR,anesthetized dogs; [3],32.3 ± 4.1 mL/min
same,PA (plasma aldosterone),anesthetized dogs; [3],5.4 ± 0.9 ng/100 ml
same,PRA (plasma renin activity),anesthetized dogs; [3],8.3 ± 1.8 ng/mL/h
same,UK .V,anesthetized dogs; [3],36 ± 6 μEq/min
same,UNa .V,anesthetized dogs; [3],187 ± 35 μEq/min
same,MAP (mean arterial pressure),"anesthetized dogs; experimental: average during infusion, 1 μg/kg bolus then 0.1 μg/kg/min for 1 hour",122 ± 4 mm Hg
same,.V (urine flow rate),anesthetized dogs; [4],0.37 ± 0.05 mL/min
same,FEH2O (fractional water excretion),anesthetized dogs; [4],1.5 ± 0.2%
same,FEK,anesthetized dogs; [4],21 ± 4%
same,FENa,anesthetized dogs; [4],1.9 ± 0.4%
same,GFR,anesthetized dogs; [4],25.4 ± 3.3 mL/min
same,MAP (mean arterial pressure),anesthetized dogs; [4],136 ± 4 mm Hg
same,PA (plasma aldosterone),anesthetized dogs; [4],7.0 ± 1.3 ng/100 ml
same,PRA (plasma renin activity),anesthetized dogs; [4],14 ± 2.5 ng/mL/h
same,UK .V,anesthetized dogs; [4],21 ± 4 μEq/min
same,UNa .V,anesthetized dogs; [4],68 ± 14 μEq/min
same,.V (urine flow rate),isolated rat kidney; [5],97.6 ± 19.4 µL/min
same,FEK (fractional potassium excretion),isolated rat kidney; [5],52.1 ± 6.2%
same,FENa (fractional sodium excretion),isolated rat kidney; [5],6.6 ± 2.0%
same,FF (filtration fraction),isolated rat kidney; [5],0.021 ± 0.001
same,FLNa (filtered load of sodium),isolated rat kidney; [5],90.1 ± 5.2 μEq/min
same,GFR (glomerular filtration rate),isolated rat kidney; [5],0.63 ± 0.03 mL/min
same,RVR (renal vascular resistance),isolated rat kidney; [5],3.9 ± 0.3 mmHg/ml/min
same,TNa (tubular reabsorption of sodium),isolated rat kidney; [5],84.2 ± 4.8 μEq/min
same,UK .V (urinary potassium excretion rate),isolated rat kidney; [5],1.46 ± 0.16 μEq/min
same,UNa.V (urinary sodium excretion rate),isolated rat kidney; [5],6.01 ± 1.99 μEq/min
same,"natriuretic in the intact rat, in words","intact rats; bolus injection, Inactin anesthetized rats",natriuretic
same,Ki,[1]; Series B smooth muscle cells,0.89 nM
CC[C@H](C)[C@@H]1NC(=O)[C@H](CCCNC(=N)N)NC(=O)[C@H](CC(=O)O)NC(=O)[C@H](CCSC)NC(=O)[C@H](CCCNC(=N)N)NC(=O)CNC(=O)CNC(=O)[C@H](Cc2ccccc2)NC(=O)[C@@H](NC(=O)[C@H](CO)NC(=O)[C@H](CO)NC(=O)[C@@H](N)CCCNC(=N)N)CSSC[C@@H](C(=O)O)NC(=O)CNC(=O)[C@H](CC(C)C)NC(=O)CNC(=O)[C@H](CO)NC(=O)[C@H](CCC(N)=O)NC(=O)[C@H](C)NC(=O)CNC1=O [hANVP(127-146)] (H-RSSCFGGRMDRIGAQSGLGC-OH; disulfide 4-20),vasorelaxant potency in words,[2],substantially diminished potency
same,IC50,[2],100 nM
same,Ki,[1]; Series B smooth muscle cells,1.82 nM
"CC[C@H](C)[C@@H]1NC(=O)[C@H](CCCNC(=N)N)NC(=O)[C@H](CC(=O)O)NC(=O)[C@@H](CCSC)NC(=O)[C@H](CCCNC(=N)N)NC(=O)CNC(=O)CNC(=O)[C@H](Cc2ccccc2)NC(=O)[C@@H](NC(=O)[C@H](CO)NC(=O)[C@H](CO)NC(=O)[C@@H](N)CCCNC(=N)N)CSSC[C@@H](C(=O)N[C@@H](CC(N)=O)C(=O)N[C@@H](CO)C(=O)N[C@@H](Cc2ccccc2)C(=O)N[C@@H](CCCNC(=N)N)C(=O)N[C@@H](Cc2ccc(O)cc2)C(=O)O)NC(=O)CNC(=O)[C@H](CC(C)C)NC(=O)CNC(=O)[C@H](CO)NC(=O)[C@H](CCC(N)=O)NC(=O)[C@H](C)NC(=O)CNC1=O [[D-Met^135]hANVP(127-151), H-Arg-Ser-Ser-Cys-Phe-Gly-Arg-[D-Met]-Asp-Arg-Ile-Gly-Ala-Gln-Ser-Gly-Leu-Gly-Cys-Asn-Ser-Phe-Arg-Tyr-OH]",IC50,[2],7.6 nM
same,Ki,[1]; Series B smooth muscle cells,4.27 nM
CC[C@H](C)[C@@H]1NC(=O)[C@H](CCCNC(=N)N)NC(=O)[C@H](CC(=O)O)NC(=O)[C@H](CCSC)NC(=O)[C@H](CCCNC(=N)N)NC(=O)CNC(=O)CNC(=O)[C@H](Cc2ccccc2)NC(=O)[C@@H](NC(=O)[C@H](CO)NC(=O)[C@H](CO)NC(=O)[C@@H](N)CCCNC(=N)N)CSSC[C@@H](C(=O)N[C@@H](CC(N)=O)C(=O)N[C@@H](CO)C(=O)N[C@@H](Cc2ccccc2)C(=O)O)NC(=O)CNC(=O)[C@H](CC(C)C)NC(=O)CNC(=O)[C@H](CO)NC(=O)[C@H](CCC(N)=O)NC(=O)[C@H](C)NC(=O)CNC1=O [hANVP(127-149)] (H-RSSCFGGRMDRIGAQSGLGCNSF-OH; disulfide 4-20),Ki,[1]; Series B smooth muscle cells,2.45 nM
"CC[C@H](C)[C@@H]1NC(=O)[C@H](CCCNC(=N)N)NC(=O)CNC(=O)CNC(=O)[C@H](Cc2ccccc2)NC(=O)[C@@H](NC(=O)[C@H](CO)NC(=O)[C@H](CO)NC(=O)[C@@H](N)CCCNC(=N)N)CSSC[C@@H](C(=O)N[C@@H](CC(N)=O)C(=O)N[C@@H](CO)C(=O)N[C@@H](Cc2ccccc2)C(=O)N[C@@H](CCCNC(=N)N)C(=O)N[C@@H](Cc2ccc(O)cc2)C(=O)O)NC(=O)CNC(=O)[C@H](CC(C)C)NC(=O)CNC(=O)[C@H](CO)NC(=O)[C@H](CCC(N)=O)NC(=O)[C@H](C)NC(=O)[C@@H](C)NC(=O)[C@H]([C@@H](C)CC)NC(=O)[C@H](CCCNC(=N)N)NC(=O)[C@H](CC(=O)O)NC1=O [[D-Ala^138]rANVP(126-150), H-Arg-Ser-Ser-Cys-Phe-Gly-Gly-Arg-Ile-Asp-Arg-Ile-[D-Ala]-Ala-Gln-Ser-Gly-Leu-Gly-Cys-Asn-Ser-Phe-Arg-Tyr-OH]",IC50,[2],3.1 nM
same,.V (urine flow rate),isolated rat kidney; [6],57.5 µL/min
same,GFR,isolated rat kidney; [6],0.54 mL/min
same,UNa.V (urinary sodium excretion rate),isolated rat kidney; [6],2.53 μEq/min
same,Ki,[1]; Series A smooth muscle cells,20 nM
CC[C@H](C)[C@@H]1NC(=O)[C@H](CCCNC(=N)N)NC(=O)[C@H](CC(=O)O)NC(=O)[C@H]([C@@H](C)CC)NC(=O)[C@H](CCCNC(=N)N)NC(=O)CNC(=O)CNC(=O)[C@H](Cc2ccccc2)NC(=O)[C@@H](NC(=O)[C@H](CO)NC(=O)[C@H](CO)NC(=O)[C@@H](N)CCCNC(=N)N)CSSC[C@@H](C(=O)N[C@@H](CC(N)=O)C(=O)N[C@@H](CO)C(=O)N[C@@H](Cc2ccccc2)C(=O)O)NC(=O)CNC(=O)[C@H](CC(C)C)NC(=O)CNC(=O)[C@H](CO)NC(=O)[C@H](CCC(N)=O)NC(=O)[C@H](C)NC(=O)CNC1=O [rANVP(126-148)] (H-RSSCFGGRIDRIGAQSGLGCNSF-OH; disulfide 4-20),vasorelaxant potency in words,[2],substantially less potent than rANVP(126-150)
same,IC50,[2],7.5 nM
same,Peak Na+ Excr.,intact rats; dose 455 pmol/kg,56.3 ± 8 µmol/min
same,Peak Urine Vol.,intact rats; dose 455 pmol/kg,6.8 ± 0.5 µL/min
same,"binding activity in smooth muscle cells relative to rANVP(126-150), in words",[1],comparable binding activity to rANVP(126-150)
same,Ki,[1]; Series B smooth muscle cells,1.32 nM
CC[C@H](C)[C@@H]1NC(=O)[C@H](CCCNC(=N)N)NC(=O)[C@H](CC(=O)O)NC(=O)[C@H]([C@@H](C)CC)NC(=O)[C@H](CCCNC(=N)N)NC(=O)CNC(=O)CNC(=O)[C@H](Cc2ccccc2)NC(=O)[C@@H](NC(=O)[C@H](CO)NC(=O)[C@H](CO)NC(=O)[C@@H](N)CCCNC(=N)N)CSSC[C@@H](C(=O)N[C@@H](CC(N)=O)C(=O)N[C@@H](CO)C(N)=O)NC(=O)CNC(=O)[C@H](CC(C)C)NC(=O)CNC(=O)[C@H](CO)NC(=O)[C@H](CCC(N)=O)NC(=O)[C@H](C)NC(=O)CNC1=O [rANVP(126-147)-NH2] (H-RSSCFGGRIDRIGAQSGLGCNS-NH2; disulfide 4-20),IC50,[2],13 nM
same,Ki,[1]; Series B smooth muscle cells,1.83 nM
CC[C@H](C)[C@@H]1NC(=O)[C@H](CCCNC(=N)N)NC(=O)[C@H](CC(N)=O)NC(=O)[C@H]([C@@H](C)CC)NC(=O)[C@H](CCCNC(=N)N)NC(=O)CNC(=O)CNC(=O)[C@H](Cc2ccccc2)NC(=O)[C@@H](NC(=O)[C@H](CO)NC(=O)[C@H](CO)NC(=O)[C@@H](N)CCCNC(=N)N)CSSC[C@@H](C(=O)N[C@@H](CC(N)=O)C(=O)N[C@@H](CO)C(=O)N[C@@H](Cc2ccccc2)C(=O)N[C@@H](CCCNC(=N)N)C(=O)N[C@@H](Cc2ccc(O)cc2)C(=O)O)NC(=O)CNC(=O)[C@H](CC(C)C)NC(=O)CNC(=O)[C@H](CO)NC(=O)[C@H](CCC(N)=O)NC(=O)[C@H](C)NC(=O)CNC1=O [[Asn^135]rANVP(126-150)] (H-RSSCFGGRINRIGAQSGLGCNSFRY-OH; disulfide 4-20),Ki,[1]; Series B smooth muscle cells,33.9 nM
